# Assay results reported in US20080214555A1 (priority 2007, published 2008).
# Where two headings read alike, the source gives them in different places.
# Tests used:
# [1] = test system: patients with non-ST elevation acute coronary syndrome; assay: MERLIN-TIMI 36: ischemia on Holter / continuous ECG (CECG); format: in vivo, human
# Protocol: Median clinical follow-up was 12 months. At randomization, 3-lead CECG monitoring was initiated for median duration of 6.9 days. Recurrent ischemia on CECG was defined as ST dep >1 mm from baseline lasting >1 min. The TRS is calculated as the sum of seven presenting characteristics: 1) age >65 yrs, 2) >3 cardiac risk factors, 3) documented coronary artery disease, 4) recent severe angina, 5) ST deviation >0.5 mm, 6) elevated cardiac markers, and 7) prior aspirin use and is categorized as low (0-2), moderate (3-4), or high (>4) risk.
# The data for total duration (minutes) of ischemia on Holter between randomization and 72 hours from MERLIN-TIMI 36 is shown in Table 19 below.
# At randomization, 6355 patients (99%) had 3-lead CECG monitoring initiated (median duration 6.9 days). The primary CECG endpoint was the rate of ST dep ≧1 mm from baseline lasting ≧1 minute with heart rate at onset <100 bpm. Exploratory analyses using ST dep ≧0.5 mm were also performed.
# [2] = background statement; cited from earlier work
# [3] = test system: patients with non-ST elevation acute coronary syndrome
# [4] = 30 days, all patients dosed, n = 3268
# [5] = 60 days, all patients dosed, n = 3268
# [6] = 360 days, all patients dosed, n = 3268
# [7] = 540 days, all patients dosed, n = 3268
# [8] = endpoint death or CV hospitalization, all patients dosed, n = 3268
# [9] = ranolazine vs placebo, all patients dosed
smiles,measurement,setting,value
"COc1ccccc1OCC(O)CN1CCN(CC(=O)Nc2c(C)cccc2C)CC1 (racemic) [Ranolazine, (±)-N-(2,6-dimethylphenyl)-4-[2-hydroxy-3-(2-methoxyphenoxy)-propyl]-1-piperazineacetamide]",Rate of primary CECG endpoint events,[1]; >72 hours after randomization,11.6%
same,"RR, primary CECG endpoint events","[1]; >72 hours after randomization, ranolazine vs placebo",0.86
same,"Rate of primary CECG endpoint (ST dep ≧1 mm lasting ≧1 minute, heart rate at onset <100 bpm)",[1]; entire 7 day recording,19.2%
same,Rate of CECG ischemic events,[1]; lower ischemic threshold of 0.5 mm,22.9
same,"RR, CECG ischemic events","[1]; lower ischemic threshold of 0.5 mm, ranolazine vs placebo",0.91
same,Prolonging the QTc interval,[2],2 to 5 ms
same,Incidence (Kaplan-Meier estimate) of death from any cause,[3]; [4],1.8%
same,Incidence (Kaplan-Meier estimate) of death or CV hospitalization,[3]; [4],9.2%
same,Incidence (Kaplan-Meier estimate) of death from any cause,[3]; [5],2.2%
same,Incidence (Kaplan-Meier estimate) of death or CV hospitalization,[3]; [5],15.0%
same,Incidence (Kaplan-Meier estimate) of death from any cause,"[3]; 180 days, all patients dosed, n = 3268",3.4%
same,Incidence (Kaplan-Meier estimate) of death from any cause,[3]; [6],5.3%
same,Incidence (Kaplan-Meier estimate) of death or CV hospitalization,[3]; [6],32.8%
same,Incidence (Kaplan-Meier estimate) of death from any cause,[3]; [7],7.0%
same,Incidence (Kaplan-Meier estimate) of death or CV hospitalization,[3]; [7],37.6%
same,Symptomatic documented arrhythmias,[3]; Example 7,3.0%
same,"Clinically reported sudden cardiac death, number",[3]; Example 8,56
same,Pts with events: death from any cause (safety endpoint),"[3]; all patients dosed, n = 3268",172
same,Pts with events: first occurrence of death or CV hospitalization (safety endpoint),"[3]; all patients dosed, n = 3268",1037
same,"Symptomatic documented arrhythmias: Bradyarrhythmias, %","[3]; all patients dosed, n = 3268",1.0%
same,"Symptomatic documented arrhythmias: Bradyarrhythmias, number","[3]; all patients dosed, n = 3268",34
same,"Symptomatic documented arrhythmias: Cardiac arrest NOS, %","[3]; all patients dosed, n = 3268",0.3%
same,"Symptomatic documented arrhythmias: Cardiac arrest NOS, number","[3]; all patients dosed, n = 3268",10
same,"Symptomatic documented arrhythmias: Pts. with Arrhythmias - Overall, %","[3]; all patients dosed, n = 3268",3.0%
same,"Symptomatic documented arrhythmias: Pts. with Arrhythmias - Overall, number","[3]; all patients dosed, n = 3268",99
same,"Symptomatic documented arrhythmias: Supraventricular arrhythmias, %","[3]; all patients dosed, n = 3268",1.2%
same,"Symptomatic documented arrhythmias: Supraventricular arrhythmias, number","[3]; all patients dosed, n = 3268",38
same,"Symptomatic documented arrhythmias: Ventricular arrhythmias, %","[3]; all patients dosed, n = 3268",0.7%
same,"Symptomatic documented arrhythmias: Ventricular arrhythmias, number","[3]; all patients dosed, n = 3268",22
same,"Endpoint-defining events: CV hospitalization, % of pts with events",[3]; [8],89.3%
same,"Endpoint-defining events: CV hospitalization, number",[3]; [8],926
same,"Endpoint-defining events: Death, % of pts with events",[3]; [8],10.7%
same,"Endpoint-defining events: Death, number",[3]; [8],111
same,"HR, total mortality","[3]; ranolazine vs placebo, 95% CI 0.80-1.22",0.99
same,"Relative risk (SE), death from any cause",[3]; [9],0.988 (0.11)
same,"Relative risk (SE), death or CV hospitalization",[3]; [9],0.981 (0.04)
same,Symptomatic documented arrhythmias,[3]; women,2.6%
